Literature values, collected in PMC12785453, “Oral Fluid Concentrations and Pharmacological Effects of Clephedrone and Methylone in Humans” (International Journal of Molecular Sciences, 2025).
Several values for one entry are separate records, joined by “and”; a condition that tells them apart may be missing. Identical values can stand only once.

What was measured:
[1] = cited from earlier work
humans = conditions: mephedrone, previous studies; cited from earlier work

## CNC(C)C(=O)c1ccc(C)cc1 (stereo not shown) [mephedrone, 4-methylmethcathinone]
[1]
  Tmax in oral fluid: 2 h
  Tmax in plasma: 1.25 h
humans
  Effects returned to baseline after: 2 to 3 h
  Time of peak effects: 0.75 h and 0.75 to 1 h
